{
  "source": "patent US20090030066A1",
  "about": "“SMALL MOLECULES FOR THE PROTECTION OF PANCREATIC CELLS” (priority 2007, published 2009)",
  "key": {"L-arginine-treated rats": {"tested_on": "L-arginine-treated rats", "assay": "L-arginine-treated rat model of necrotic pancreatitis", "format": "in vivo", "description": "L-arginine-treated rats are frequently used experimental tools to model necrotic pancreatitis [Krajewski, E., Krajewski, J., Spodnik, J. H., Figarski, A. and Kunasik-Juraniec, J. (2005) Changes in the morphology of the acinar cells of the rat pancreas in the oedematous and nectoric types of experimental acute pancreatitis. Folia Morphol. 64, 292-303]. L-arginine is a precursor of NO which primarily destroys the exocrine pancreas with subsequent damage of insulin producing islet cells. Just like pancreatitis is often associated with elevated blood glucose level in human patients, extensive damage of pancreas in the L-arginine-treated animal model also results in damaged function of β-cells as indicated by higher blood glucose levels. In this example, the L-arginine-treated rat model was employed to see if CCompound1 could also prevent or reduce deterioration of β-cell function and the damage of the exocrine pancreas.\nMale Wistar rats weighing 220-250 g were divided into four groups, each group consisting of 6 animals. To ensure standard conditions animals were starved for 16 hours before the start of the experiment. CCompound1 was first injected 24 hours prior to L-arginine injection, followed by similar daily injections for 5 consecutive days. In the first group, rats remained untreated. On day 0, animals in groups 2-4 were injected 2×2.5 g/kg L-arginine i.p. at one hour intervals. Animals in group 4 also received daily s.c. injection of 4.5 mg/kg of CCompound1 between days −1 and 5. To verify development of acute pancreatitis, 24 hours after L-arginine injections rats in group 2 were anesthetized with 45 mg/kg pentobarbital i.p. and exsanguinated through the abdominal aorta. On day 0, 2, 4 and 6 blood sugar values of the experimental animals were measured after fasting for 8 hours with the C-test; blood samples were taken from the tail. Edema of the pancreatic tissue was assessed by the pancreatic weight/body weight ratio. The animals in the remaining groups were sacrificed on day 7.\nFor histological examinations, a portion of the head of the pancreas was fixed in 4% neutral formaldehyde solution and embedded in paraffin. Tissue slices were stained with hematoxylin and eosin and examined by light microscopy. Slices were coded and examined blind by a pathologist for the grading of histological alterations. The extent and intensity of pancreatic edema, leukocyte infiltration, acinar vacuolization, hyperemia and tubular transformation were described with scores ranging from 0 to 3. The total histological damage was calculated by adding the scores for the various below listed parameters together.\nHyperemia; defined as the amount of red blood cells in the vessels.\nEdema; defined as the widening of interstitial space.\nVacuolization; defined as the formation of vacuoles in the cytoplasm of acinar cells. Vacuolization results from the fusion of zymogene granules and lysosomes.\nInflammation; defined and quantified by the infiltration of the tissue with mononuclear inflammatory cells (lymphocytes, plasma cells, and mast cells).\nNecrosis; defined as the measure of the extent of the destruction of normal pancreatic tissue structure.\nTubular transformation; defined as desquamation of acinar cell apical cytoplasm and release of cytoplasm segments into the acinar lumen leading to formation of duct-like tubular complexes. (Elsässer H. P., Adler G and Kern H. F. (1986) Time course and cellular source of pancreatic regeneration following acute pancreatitis in the rat. Pancreas 1 (5) 421-9).\nTotal histological damage (total damage); defined and calculated by combining the histological scores of the above mentioned parameters (except vacuolization). This value is the generally accepted best representation of the severity of pancreatitis in the art. […]"}, "RINm5F rat islet β-cells": {"tested_on": "RINm5F rat islet β-cells", "assay": "MTT viability of palmitic acid-treated RINm5F islet β-cells", "format": "cell-based", "details": "for A540 (MTT, relative number of viable cells): 24 h, mean ± S.D. n=8", "description": "(§1) In the Examples below, an MTT assay was used to determine the relative number of viable cells after treatments. This calorimetric assay is based on the ability of living cells, but not dead cells, to reduce 3-(4,5-dimethyl thiazol-2-yl)-2,5-diphenyltetrazolium bromide. [Carmichael, J, De Graff, W. G., Gazdar, A. F., Minna, J. D. and Mitchell, J. B. (1987) Evaluation of tetrazolium-based semiautomated calorimetric assay: Assessment of chemosensitivity testing. Cancer Res. 47, 936-942], which is hereby incorporated by reference. For this assay, cells were plated in 96-well plates, and the MTT assay was performed as described in the above article both in untreated and treated cell cultures. The MTT assay also was performed at the time when the treatment was started to allow for assessment of the proliferation and survival rates in the control and treated cell cultures. In the MTT assay, higher values mean proportionally higher numbers of viable cells.\nRINm5F rat islet β-cells (ATCC CRL-2058; secondary clone of RIN-m clone secreting only insulin, but no somatostatin or glucagon) were used to determine if CCompound1 could protect them against fatty acid-induced cell death. The medium for propagation: RPMI 1640/10% fetal bovine serum.\nPalmitic acid (purchased from Sigma-Aldrich) was dissolved in 200 mM ethanol and then diluted 1:25 with Krebs-Ringer-Hepes buffer containing 20% bovine serum albumin (fraction V, fatty acid-free; from Sigma-Aldrich). The fatty acid mixture was gently agitated at 37° C. under nitrogen overnight. The cells were seeded into 96-well plates at a density of 8,000 cells per well. When the cultures reached 70% confluence, fatty acid or a corresponding amount of albumin and CCompound1 (suspended in the medium) were added to the medium and incubations continued for 24 hours. This was followed by the MTT assay to determine the relative number of viable cells."}, "NIT-1 β-cells": {"tested_on": "NIT-1 β-cells", "assay": "MTT viability of STZ-treated NIT-1 islet β-cells", "format": "cell-based, mouse", "details": "for A540 (MTT, relative number of viable cells): 30 h, 2% serum, mean ± std. dev. n=8", "description": "as §1\nNIT-1 β-cells, originally isolated from transgenic NOD mouse carrying SV 40 large T antigen gene on a rat insulin promoter, were obtained from American Type Culture Collection (ATCC CRL-2055). NIT-1 cells contain and secrete insulin, while at the same time they retained their ability to proliferate in the presence of an appropriate stimulus. The cells, maintained in Ham's F12K medium containing 10% heat-inactivated dialyzed fetal bovine serum, were used between passages 32-35.\nIn this experiment, NIT-1 cells were seeded into 96-well plates. After 24 hours, the medium was replaced with fresh 2% fetal bovine serum containing medium, followed by treatments with 2-50 μM of CCompound1 and 30 min later with 20 mM STZ. Treatments were for 30 hours followed by the MTT assay to determine the relative number of viable cells (expressed as A540)."}, "[1]": {"details": "L-arginine + compound, pancreas, day 7"}},
  "data": [
    {"smiles": "Cc1c(OCC(O)C[N+](C)(C)C)cc2c(=O)c3ccccc3sc2c1C.[Cl-]", "note": "(stereo not shown) [CCcompound1, [3-(3,4-Dimethyl-9-oxo-9H-thioxanthen-2-yloxy)-2-hydroxypropyl]trimethyl-ammonium chloride]", "values": [
      {"measurement": "effect on L-arginine-stimulated blood glucose", "setting": "L-arginine-treated rats; 4.5 mg/kg s.c. daily", "result": "reduced L-arginine-stimulated blood glucose to control level"},
      {"measurement": "Blood glucose", "setting": "L-arginine-treated rats; L-arginine 2×2.5 g/kg i.p. day 0 + compound 4.5 mg/kg s.c. daily days −1 to 5, fasted 8 h, day 0", "result": "6.28 ± 0.31", "unit": "mM"},
      {"measurement": "effect on tissue necrosis", "setting": "L-arginine-treated rats; L-arginine + compound", "result": "significant reduction in tissue necrosis"},
      {"measurement": "Blood glucose", "setting": "L-arginine-treated rats; L-arginine + compound 4.5 mg/kg s.c. daily, fasted 8 h, day 2", "result": "6.46 ± 0.33", "unit": "mM"},
      {"measurement": "Blood glucose", "setting": "L-arginine-treated rats; L-arginine + compound 4.5 mg/kg s.c. daily, fasted 8 h, day 4", "result": "6.26 ± 0.21", "unit": "mM"},
      {"measurement": "Blood glucose", "setting": "L-arginine-treated rats; L-arginine + compound 4.5 mg/kg s.c. daily, fasted 8 h, day 6", "result": "6.00 ± 0.49", "unit": "mM"},
      {"measurement": "insulin staining score (scale 0 to 3)", "setting": "L-arginine-treated rats; L-arginine + compound, day 7, immunohistochemistry of pancreas", "result": "2.45±0.30"},
      {"measurement": "Edema histological score (0 to 3)", "setting": "L-arginine-treated rats; [1]", "result": "1.33 ± 0.21"},
      {"measurement": "Hyperemia histological score (0 to 3)", "setting": "L-arginine-treated rats; [1]", "result": "1.17 ± 0.17"},
      {"measurement": "Inflammation histological score (0 to 3)", "setting": "L-arginine-treated rats; [1]", "result": "2.00 ± 0.00"},
      {"measurement": "Necrosis histological score (0 to 3)", "setting": "L-arginine-treated rats; [1]", "result": "1.25 ± 0.36"},
      {"measurement": "Total damage (sum of histological scores except vacuolization)", "setting": "L-arginine-treated rats; [1]", "result": "7.75 ± 0.70"},
      {"measurement": "Tubular transformation histological score (0 to 3)", "setting": "L-arginine-treated rats; [1]", "result": "2.00 ± 0.37"},
      {"measurement": "Vacuolization histological score (0 to 3)", "setting": "L-arginine-treated rats; [1]", "result": "1.17 ± 0.17"},
      {"measurement": "protection of endocrine and exocrine pancreatic cells", "setting": "L-arginine-treated rats; L-arginine-induced necrotic pancreatitis model", "result": "partially or fully protected both the endocrine and exocrine pancreatic cells"},
      {"measurement": "effect on palmitic acid-induced decrease in the number of viable cells", "setting": "RINm5F rat islet β-cells; 5 μM", "result": "partially prevented"},
      {"measurement": "effect on palmitic acid-induced decrease in the number of viable cells", "setting": "RINm5F rat islet β-cells; 10 μM", "result": "almost fully prevented"},
      {"measurement": "effect on palmitic acid-induced decrease in the number of viable cells", "setting": "RINm5F rat islet β-cells; 50 μM", "result": "added to the inhibitory effect of palmitic acid"},
      {"measurement": "A540 (MTT, relative number of viable cells)", "setting": "RINm5F rat islet β-cells; palmitic acid 0.5 mM + compound 5 μM", "result": "1,198 ± 0.086"},
      {"measurement": "A540 (MTT, relative number of viable cells)", "setting": "RINm5F rat islet β-cells; palmitic acid 0.5 mM + compound 10 μM", "result": "1,251 ± 0.069"},
      {"measurement": "A540 (MTT, relative number of viable cells)", "setting": "RINm5F rat islet β-cells; palmitic acid 0.5 mM + compound 50 μM", "result": "0.836 ± 0.080"},
      {"measurement": "effect on the inhibitory effects of STZ on cell proliferation", "setting": "NIT-1 β-cells; 10 μM", "result": "almost fully reverses"},
      {"measurement": "effect on the inhibitory effects of STZ on cell proliferation", "setting": "NIT-1 β-cells; 50 μM", "result": "added to the inhibitory effects of STZ"},
      {"measurement": "effect on the inhibitory effects of STZ on cell proliferation", "setting": "NIT-1 β-cells; 2-5 μM", "result": "partially reverses"},
      {"measurement": "A540 (MTT, relative number of viable cells)", "setting": "NIT-1 β-cells; STZ 20 mM + compound 2 μM", "result": "0.934 ± 0.053"},
      {"measurement": "A540 (MTT, relative number of viable cells)", "setting": "NIT-1 β-cells; STZ 20 mM + compound 5 μM", "result": "1.078 ± 0.068"},
      {"measurement": "A540 (MTT, relative number of viable cells)", "setting": "NIT-1 β-cells; STZ 20 mM + compound 10 μM", "result": "1.144 ± 0.056"},
      {"measurement": "A540 (MTT, relative number of viable cells)", "setting": "NIT-1 β-cells; STZ 20 mM + compound 50 μM", "result": "0.718 ± 0.071"}
    ]}
  ]
}
